Measured values taken from patent US12319664B2, “Herbicidally active 3-phenylisoxazoline-5-carboxamides of cyclopentenylcarboxylic acid derivatives” (Bayer Aktiengesellschaft, priority 2018, dated 2025).

Assays:
ALOMY = assay: Post-emergence herbicidal action against ALOMY; assay type: in vivo, Alopecurus myosuroides; conditions: application rate 80 g/ha, rated visually after about 3 weeks
Experimental: (§1) [table] 2. Post-emergence herbicidal action against harmful plants and crop plant compatibility Seeds of monocotyledonous and dicotyledonous weeds and crop plants are placed in sandy loam in plastic or wood-fibre pots, covered with soil and cultivated in a greenhouse under controlled growth conditions. 2 to 3 weeks after sowing, the test plants are treated at the one-leaf stage. The compounds of the invention, formulated in the form of wettable powders (WP) or as emulsion concentrates (EC), are then sprayed onto the green parts of the plants as aqueous suspension or emulsion with addition of 0.5% additive at a water application rate of 600 l/ha (converted). After the test plants have been kept in the greenhouse under optimum growth conditions for about 3 weeks, the activity of the preparations is rated visually in comparison to untreated controls. For example, 100% activity=the plants have died, 0% activity=like control plants.

AVEFA = assay: Post-emergence herbicidal action against AVEFA; assay type: in vivo, Avena fatua; conditions: application rate 80 g/ha, rated visually after about 3 weeks
Experimental: as §1

ECHCG = assay: Post-emergence herbicidal action against ECHCG; assay type: in vivo, Echinochloa crus-galli; conditions: application rate 80 g/ha, rated visually after about 3 weeks
Experimental: as §1

LOLRI = assay: Post-emergence herbicidal action against LOLRI; assay type: in vivo, Lolium rigidum; conditions: application rate 80 g/ha, rated visually after about 3 weeks
Experimental: as §1

SETVI = assay: Post-emergence herbicidal action against SETVI; assay type: in vivo, Setaria viridis; conditions: application rate 80 g/ha, rated visually after about 3 weeks
Experimental: as §1

ABUTH = assay: Post-emergence herbicidal action against ABUTH; assay type: in vivo, Abutilon theophrasti; conditions: application rate 80 g/ha, rated visually about 3 weeks after treatment
Experimental: as §1

PHBPU = assay: Post-emergence herbicidal action against PHBPU; assay type: in vivo, Pharbitis purpurea; conditions: application rate 80 g/ha, rated visually about 3 weeks after treatment
Experimental: as §1

STEME = assay: Post-emergence herbicidal action against STEME; assay type: in vivo, Stellaria media; conditions: application rate 80 g/ha, rated visually about 3 weeks after treatment
Experimental: as §1

HORMU = assay: Post-emergence herbicidal action against HORMU; assay type: in vivo, Hordeum murinum; conditions: application rate 80 g/ha
Experimental: as §1

AMARE = assay: Post-emergence herbicidal action against AMARE; assay type: in vivo, Amaranthus retroflexus; conditions: application rate 80 g/ha, rated visually about 3 weeks after treatment
Experimental: as §1

POLCO = assay: Post-emergence herbicidal action against POLCO; assay type: in vivo, Polygonum convolvulus; conditions: application rate 80 g/ha, rated visually about 3 weeks after treatment
Experimental: as §1

VERPE = assay: Post-emergence herbicidal action against VERPE; assay type: in vivo, Veronica persica; conditions: application rate 80 g/ha
Experimental: as §1

VIOTR = assay: Post-emergence herbicidal action against VIOTR; assay type: in vivo, Viola tricolor; conditions: application rate 80 g/ha, rated visually about 3 weeks after treatment
Experimental: as §1

| SMILES | Herbicidal action against [%] ALOMY (ALOMY) [%] | Herbicidal action against [%] AVEFA (AVEFA) [%] | Herbicidal action against [%] ECHCG (ECHCG) [%] | Herbicidal action against [%] LOLRI (LOLRI) [%] | Herbicidal action against [%] SETVI (SETVI) [%] | Herbicidal action against [%] ABUTH (ABUTH) [%] | Herbicidal action against [%] PHBPU (PHBPU) [%] | Herbicidal action against [%] STEME (STEME) [%] | Herbicidal action against [%] HORMU (HORMU) [%] | Herbicidal action against [%] AMARE (AMARE) [%] | Herbicidal action against [%] POLCO (POLCO) [%] | Herbicidal action against [%] VERPE (VERPE) [%] | Herbicidal action against [%] VIOTR (VIOTR) [%] |
| --- | --- | --- | --- | --- | --- | --- | --- | --- | --- | --- | --- | --- | --- |
| O=C(OCCCl)C1C=CC(NC(=O)C2(C(F)(F)F)CC(c3cccc(Cl)c3)=NO2)C1 (mixture of isomers) [Example I-045] | 100 | 90 | 80 | 80 | 80 | 80 | 80 | 80 | 90 |  |  |  |  |
| C=CC1(C(=O)NC2C=CC(C(=O)N3CCCO3)C2)CC(c2cc(F)cc(F)c2)=NO1 (stereo not shown) [II-28] | 100 | 80 | 90 | 90 | 80 | 90 | 90 | 90 | 80 | 80 | 80 | 90 |  |
| CC1(C(=O)NC2C=CC(C(=O)O)C2)CC(c2cccc(C#N)c2)=NO1 (mixture of isomers) [Example I-070] | 90 | 100 | 90 | 80 | 90 | 80 | 80 | 80 | 90 | 90 | 90 | 80 |  |
| C=CC1(C(=O)N[C@H]2CC=C(C(=O)OC(C)C)C2)CC(c2cc(F)cc(F)c2)=NO1 (stereo partly shown) [III-13] | 90 | 90 | 90 | 100 | 80 | 80 | 90 | 90 | 90 | 90 | 80 | 80 |  |
| COCCOC(=O)C1C=CC(NC(=O)C2(C(F)(F)F)CC(c3cccc(C#N)c3)=NO2)C1 (mixture of isomers) [Example I-086] | 90 | 90 | 90 | 90 | 90 | 90 | 80 | 80 | 100 | 90 | 80 | 90 |  |
| CCOC(=O)[C@@H]1C=C[C@H](NC(=O)C2(C(F)(F)F)CC(c3ccccc3)=NO2)C1 (stereo partly shown) [Example I-021] | 90 | 100 | 80 | 90 | 90 | 80 | 80 | 80 | 90 | 90 | 90 | 80 |  |
| CCOC(=O)C1C=CC(NC(=O)C2(C)CC(c3cc(F)cc(C#N)c3)=NO2)C1 (mixture of isomers) [Example I-073] | 90 | 100 | 100 | 100 | 80 | 80 | 80 | 90 | 90 | 80 | 90 | 80 |  |
| C=CC1(C(=O)NC2C=CC(C(=O)NC(C(=O)OC)C(C)C)C2)CC(c2cc(F)cc(F)c2)=NO1 (single isomer, unassigned) [II-26] | 100 | 90 | 80 | 100 | 80 | 80 | 80 | 90 | 100 | 90 | 80 | 80 |  |
| Cc1cc(Cl)cc(C2=NOC(C(=O)N[C@H]3C=C[C@@H](C(=O)OCC(F)(F)F)C3)(C(F)(F)F)C2)c1 (stereo partly shown) [Example I-029] | 90 | 80 |  | 90 | 80 |  |  |  | 80 | 90 | 80 | 90 | 80 |
| CC(C)(NC(=O)C1C=CC(NC(=O)C2(C(F)(F)F)CC(c3cc(F)cc(F)c3)=NO2)C1)C(F)(F)F (stereo not shown) [II-38] |  |  |  |  |  |  |  |  |  | 90 |  |  | 80 |
| CC1(C(=O)N[C@H]2C=C[C@@H](C(=O)OCC(F)(F)F)C2)CC(c2cc(F)cc(F)c2)=NO1 (stereo partly shown) [Example I-010] | 90 | 90 | 90 | 90 | 90 | 80 | 90 | 80 | 90 | 90 | 90 | 90 |  |
| CC(C)(C)OC(=O)[C@@H]1C=C[C@H](NC(=O)C2(C)CC(c3cc(F)cc(F)c3)=NO2)C1 (stereo partly shown) [Example I-007] | 90 | 90 | 90 | 90 | 90 | 80 | 90 | 90 | 90 |  | 80 | 90 |  |
